Source: ChEMBL document CHEMBL1201862, “PubChem BioAssay data set” (2004)
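Cells were grown in 96-well plates and exposed to each compound for 48 hours at five concentrations; endpoints were interpolated linearly between bracketing concentrations, or set to the highest concentration if not reached. At the GI50, growth is halved.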 Calls of active or inactive are those of the source. No stated cut-off is given here; in the data, active = GI50 up to about 1.1 µM and inactive = higher.

Columns and labels:
Test in all cases: NCI anticancer screen, dose series, 48 h
[1] = system: RPMI-8226
[2] = system: SNB-75
[3] = system: A498
[4] = system: OVCAR-4
[5] = system: NCI-H522
[6] = system: PC-3
[7] = system: OVCAR-3
[8] = system: SNB-19
[9] = system: KM12
[10] = system: U-251
[11] = system: CAKI-1
[12] = system: HCT-116
[13] = system: NCI/ADR-RES
[14] = system: IGROV-1
[15] = system: SK-MEL-2
[16] = system: OVCAR-5
[17] = system: SN12C
[18] = system: ACHN
[19] = system: MDA-MB-231
[20] = system: HCC 2998

Row | SMILES | GI50 [1] | GI50 [2] | GI50 [3] | GI50 [4] | GI50 [5] | GI50 [6] | GI50 [7] | GI50 [8] | GI50 [9] | GI50 [10] | GI50 [11] | GI50 [12] | GI50 [13] | GI50 [14] | GI50 [15] | GI50 [16] | GI50 [17] | GI50 [18] | GI50 [19] | GI50 [20]
1 | CCCCCCCCCCCCCC(=O)O.O=CC(O)C(O)C(OC1OC(CO)C(O)C(O)C1O)C(O)CO (stereo unspecified) | 19.8 µM (inactive) | > 100 µM (inactive) | > 100 µM (inactive) | > 100 µM (inactive) | 57.4 µM (inactive) | 73.5 µM (inactive) | > 100 µM (inactive) | > 100 µM (inactive) | 23.2 µM (inactive) | 35 µM (inactive) | 71.6 µM (inactive) | > 100 µM (inactive) | > 100 µM (inactive) | 26.3 µM (inactive) | > 100 µM (inactive) | > 100 µM (inactive) | 80.4 µM (inactive) | > 100 µM (inactive) | 28.8 µM (inactive) | –
2 | Cc1ccc(/C=C2\CN(C)CC3C(c4ccc(C)cc4)=C(C#N)C(=O)NC23)cc1 (stereo unspecified) | > 50 µM (inactive) | – | > 50 µM (inactive) | > 50 µM (inactive) | > 50 µM (inactive) | > 50 µM (inactive) | > 50 µM (inactive) | > 50 µM (inactive) | > 50 µM (inactive) | > 50 µM (inactive) | > 50 µM (inactive) | > 50 µM (inactive) | > 50 µM (inactive) | > 50 µM (inactive) | > 50 µM (inactive) | > 50 µM (inactive) | > 50 µM (inactive) | > 50 µM (inactive) | 48.2 µM (inactive) | > 50 µM (inactive)
3 | O=C(O)C(=O)Cc1ccc2c(c1)OCO2 | > 100 µM (inactive) | > 100 µM (inactive) | > 100 µM (inactive) | > 100 µM (inactive) | – | > 100 µM (inactive) | > 100 µM (inactive) | > 100 µM (inactive) | > 100 µM (inactive) | > 100 µM (inactive) | > 100 µM (inactive) | > 100 µM (inactive) | > 100 µM (inactive) | > 100 µM (inactive) | > 100 µM (inactive) | > 100 µM (inactive) | > 100 µM (inactive) | > 100 µM (inactive) | > 100 µM (inactive) | –
4 | CN(C)CCCNc1ccc2nnn3c4ccc(OC(=O)c5ccccc5)cc4c(=O)c1c23 | 3.29 µM (inactive) | – | 8.41 µM (inactive) | 1.66 µM (inactive) | 2.84 µM (inactive) | 8.34 µM (inactive) | 11.5 µM (inactive) | 10.9 µM (inactive) | 4.92 µM (inactive) | 11.5 µM (inactive) | 0.579 µM (active) | 3.15 µM (inactive) | 12.5 µM (inactive) | 2.11 µM (inactive) | 15.9 µM (inactive) | 14.4 µM (inactive) | 5.06 µM (inactive) | 3.05 µM (inactive) | 10.4 µM (inactive) | 9.08 µM (inactive)
5 | Cc1ccn2c(CCc3nnc4cc(C)ccn34)nnc2c1 | > 100 µM (inactive) | > 100 µM (inactive) | > 100 µM (inactive) | > 100 µM (inactive) | > 100 µM (inactive) | > 100 µM (inactive) | > 100 µM (inactive) | > 100 µM (inactive) | > 100 µM (inactive) | > 100 µM (inactive) | > 100 µM (inactive) | > 100 µM (inactive) | > 100 µM (inactive) | > 100 µM (inactive) | > 100 µM (inactive) | > 100 µM (inactive) | > 100 µM (inactive) | > 100 µM (inactive) | > 100 µM (inactive) | –
6 | N=C(N)N/N=C/c1c(-c2ccccc2)nc2ccn3c(/C=N/N=C(N)N)c(-c4ccccc4)nc3n12 | > 100 µM (inactive) | > 100 µM (inactive) | 46.8 µM (inactive) | > 100 µM (inactive) | 21.3 µM (inactive) | 62.8 µM (inactive) | 68.5 µM (inactive) | 20.3 µM (inactive) | 26.9 µM (inactive) | 58.5 µM (inactive) | > 100 µM (inactive) | 26.6 µM (inactive) | > 100 µM (inactive) | 2.11 µM (inactive) | > 100 µM (inactive) | 37 µM (inactive) | 38.8 µM (inactive) | 21.8 µM (inactive) | > 100 µM (inactive) | –
7 | CCOC(=O)C1CCC(=O)N1C(=O)c1cccc(Cl)c1 (stereo unspecified) | > 100 µM (inactive) | > 100 µM (inactive) | > 100 µM (inactive) | – | > 100 µM (inactive) | > 100 µM (inactive) | > 100 µM (inactive) | > 100 µM (inactive) | > 100 µM (inactive) | > 100 µM (inactive) | > 100 µM (inactive) | > 100 µM (inactive) | > 100 µM (inactive) | > 100 µM (inactive) | – | > 100 µM (inactive) | > 100 µM (inactive) | > 100 µM (inactive) | > 100 µM (inactive) | –
8 | Cc1c(Cl)ccc2c(=O)c3cccc(CC(=O)O)c3oc12 | > 100 µM (inactive) | – | > 100 µM (inactive) | > 100 µM (inactive) | > 100 µM (inactive) | > 100 µM (inactive) | > 100 µM (inactive) | > 100 µM (inactive) | > 100 µM (inactive) | > 100 µM (inactive) | > 100 µM (inactive) | > 100 µM (inactive) | > 100 µM (inactive) | > 100 µM (inactive) | > 100 µM (inactive) | – | > 100 µM (inactive) | > 100 µM (inactive) | > 100 µM (inactive) | > 100 µM (inactive)
9 | O=C(O)c1nc2ccc(C(F)(F)F)cc2nc1NCc1ccc(F)cc1 | 21 µM (inactive) | 35.2 µM (inactive) | 23.7 µM (inactive) | > 100 µM (inactive) | – | 26.5 µM (inactive) | 8.34 µM (inactive) | 24.5 µM (inactive) | 26.4 µM (inactive) | 16.7 µM (inactive) | 37.8 µM (inactive) | 15.9 µM (inactive) | 35.5 µM (inactive) | 25.4 µM (inactive) | 19.5 µM (inactive) | 22.4 µM (inactive) | 17.5 µM (inactive) | 27.2 µM (inactive) | 32.4 µM (inactive) | 22.8 µM (inactive)
10 | CC1=C(C)C2(C#N)C(=O)N3C(=NC(c4ccccc4)NC3c3ccccc3)C2(C#N)C(c2ccccc2)N1 (stereo unspecified) | > 100 µM (inactive) | – | > 100 µM (inactive) | > 100 µM (inactive) | > 100 µM (inactive) | > 100 µM (inactive) | – | > 100 µM (inactive) | > 100 µM (inactive) | > 100 µM (inactive) | > 100 µM (inactive) | > 100 µM (inactive) | > 100 µM (inactive) | > 100 µM (inactive) | > 100 µM (inactive) | > 100 µM (inactive) | > 100 µM (inactive) | > 100 µM (inactive) | > 100 µM (inactive) | > 100 µM (inactive)
11 | O=C(/C=C/c1ccc2c(c1)OCO2)NCc1ccco1 | – | 22.3 µM (inactive) | 84.3 µM (inactive) | 41.6 µM (inactive) | – | > 100 µM (inactive) | 82.2 µM (inactive) | 50.9 µM (inactive) | > 100 µM (inactive) | > 100 µM (inactive) | > 100 µM (inactive) | > 100 µM (inactive) | > 100 µM (inactive) | 56 µM (inactive) | > 100 µM (inactive) | > 100 µM (inactive) | > 100 µM (inactive) | > 100 µM (inactive) | > 100 µM (inactive) | > 100 µM (inactive)
12 | O=C1c2ccccc2C(=O)N1c1nc(-c2ccc(Cl)cc2)cc(N2N=C(c3ccc(Br)cc3)CC2c2ccccc2)n1 (stereo unspecified) | 2.7 µM (inactive) | – | 19.2 µM (inactive) | 4.23 µM (inactive) | 2.09 µM (inactive) | 3.93 µM (inactive) | 0.863 µM (active) | 4.86 µM (inactive) | 9.4 µM (inactive) | 1.67 µM (inactive) | 1.51 µM (inactive) | 2.01 µM (inactive) | 1.97 µM (inactive) | 2.84 µM (inactive) | 3.26 µM (inactive) | 1.04 µM (active) | 2.9 µM (inactive) | 3.9 µM (inactive) | 4.07 µM (inactive) | 0.301 µM (active)
13 | CCN(CC)CCn1c(=O)c2ccccc2n2c3c(=O)n(C)c(=O)n(C)c3nc12 | 1.6 µM (inactive) | 1.64 µM (inactive) | – | 4.27 µM (inactive) | 2.43 µM (inactive) | 2.38 µM (inactive) | 4.06 µM (inactive) | 2.38 µM (inactive) | 1.77 µM (inactive) | 1.43 µM (inactive) | 0.252 µM (active) | 1.55 µM (inactive) | 3.33 µM (inactive) | 2.11 µM (inactive) | 2.82 µM (inactive) | 2.53 µM (inactive) | 1.53 µM (inactive) | 0.25 µM (active) | 5.14 µM (inactive) | 1.93 µM (inactive)
14 | Cc1cc(N2CCN(C)CC2)n2nc(-c3ccc(Cl)cc3)nc2n1 | 56.5 µM (inactive) | 66.7 µM (inactive) | 43.3 µM (inactive) | > 100 µM (inactive) | 84.7 µM (inactive) | > 100 µM (inactive) | > 100 µM (inactive) | > 100 µM (inactive) | > 100 µM (inactive) | > 100 µM (inactive) | > 100 µM (inactive) | 61.7 µM (inactive) | 90.6 µM (inactive) | > 100 µM (inactive) | 74.8 µM (inactive) | > 100 µM (inactive) | 54.6 µM (inactive) | 50.6 µM (inactive) | > 100 µM (inactive) | –
15 | CCCCCCCC/C=C/CCCCCCCC1CC(O)C(=O)O1 (stereo unspecified) | 25.8 µM (inactive) | 35.7 µM (inactive) | 28.4 µM (inactive) | 43.2 µM (inactive) | – | 46.3 µM (inactive) | 27.9 µM (inactive) | 65.2 µM (inactive) | – | 62.7 µM (inactive) | – | 41.1 µM (inactive) | 54.1 µM (inactive) | 85.3 µM (inactive) | – | > 100 µM (inactive) | > 10 µM (inactive) | 28.4 µM (inactive) | > 100 µM (inactive) | 61.4 µM (inactive)
